Drawing on PubChem BioAssay (NCI), this text covers TGI and GI50 for 20 compounds.

Several values for one entry are separate records, joined by “and”; a condition that tells them apart may be missing. Equal values may be shown once.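 Exposure lasted 48 hours, with cells grown in 96-well plates and compounds tested at five concentrations. GI50 = concentration required for 50% inhibition of growth. TGI: concentration producing complete growth inhibition.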

Test systems include MOLT-4 leukemia; IGROV1 ovarian; HOP-92 NSCLC; CCRF-CEM leukemia; SW-620 colon; HCT-15 colon; HCC-2998 colon; RXF 393 renal; SK-OV-3 ovarian; HS 578T breast.
Common to all, as to test: NCI tumour cell line growth inhibition, 48 h

For `COc1ccc2c(-c3ccc(OCCN(C)C)cc3)c(Oc3ccc(Cl)cc3)c(=O)oc2c1`, the TGI with MOLT-4 leukemia was 6.09 µM; in the assay on IGROV1 ovarian, 14.1 µM; with HOP-92 NSCLC, 32.5 µM; in the assay with CCRF-CEM leukemia it was 23.1 µM; with SW-620 colon it was more than 46.8 µM; in the assay on HCT-15 colon it was 15.5 µM. In addition, the TGI in the assay with HCC-2998 colon is 9.63 µM; in the assay with RXF 393 renal it was 12.4 µM; in the assay on SK-OV-3 ovarian, 29.3 µM; in the assay on HS 578T breast it was more than 54.6 µM.

Take `CSCCCNC(=O)c1csc(-c2csc(CCNC(=O)CNC(=O)CNC(=O)CNC(=O)OC(C)(C)C)n2)n1`: the TGI in the assay on MOLT-4 leukemia, with IGROV1 ovarian, in the assay on HOP-92 NSCLC, in the assay on CCRF-CEM leukemia, with SW-620 colon and in the assay on HCT-15 colon was more than 100 µM in each case. Moreover, the TGI with HCC-2998 colon, with RXF 393 renal, with SK-OV-3 ovarian and in the assay with HS 578T breast was more than 100 µM each time.

Take `Cc1nn(C(=O)c2ccncc2)c2c1C(c1cccc([N+](=O)[O-])c1)SC(N)=N2` (stereo not given): the TGI in the assay on MOLT-4 leukemia, with IGROV1 ovarian, with HOP-92 NSCLC, in the assay with CCRF-CEM leukemia, in the assay on SW-620 colon and with HCT-15 colon was more than 10 µM throughout. The TGI in the assay on HCC-2998 colon, with RXF 393 renal, in the assay on SK-OV-3 ovarian and with HS 578T breast was more than 10 µM throughout.

Take `Cc1cc(C)c2c(=N)c3ccccc3n(CCCCCCO)c2n1`: the TGI in the assay with MOLT-4 leukemia is 17.6 µM; in the assay on IGROV1 ovarian, 10.9 µM; in the assay with HOP-92 NSCLC it was 16 µM; with CCRF-CEM leukemia, 9.64 µM; with SW-620 colon it was more than 36.1 µM; with HCT-15 colon, 9.69 µM. The TGI in the assay with HCC-2998 colon is 7.07 µM; in the assay with RXF 393 renal, 14.2 µM; in the assay with SK-OV-3 ovarian, 18.5 µM; in the assay on HS 578T breast, 8.37 µM.

Take `CC1(C)CCCCCCCCCC(C)(CCCCCCCCCCCCO)C1=O` (stereo not given): the TGI in the assay with MOLT-4 leukemia came out at 76.7 µM; in the assay with IGROV1 ovarian, 33.7 µM; in the assay with HOP-92 NSCLC, 31.7 µM; in the assay on CCRF-CEM leukemia, 50.7 µM; with SW-620 colon, 32.5 µM; with HCT-15 colon, 55 µM. In addition, the TGI in the assay on HCC-2998 colon was determined as 13.7 µM; with RXF 393 renal, 33.3 µM; with SK-OV-3 ovarian it was 33.2 µM; with HS 578T breast, 38 µM.

For `Cc1cc(O)ccc1C1(c2ccc(F)cc2)OC(=O)c2ccccc21` (stereo not given), the TGI in the assay with MOLT-4 leukemia is more than 100 µM; in the assay with IGROV1 ovarian it was 10.2 µM; in the assay with HOP-92 NSCLC, 12.5 µM; in the assay on CCRF-CEM leukemia it was more than 95.5 µM; with SW-620 colon, 25.5 µM; in the assay on HCT-15 colon it was 12.4 µM. Moreover, the TGI in the assay with HCC-2998 colon worked out at 15.3 µM; in the assay with RXF 393 renal it was 3.33 µM; in the assay on SK-OV-3 ovarian it was 14.2 µM; in the assay with HS 578T breast, 2.41 µM.

Consider `ONC1=Nc2ccccc2OCc2cc(Br)c(Br)cc2COc2ccccc2N=C1NO`, for which the TGI in the assay on MOLT-4 leukemia is more than 31.3 µM; in the assay with IGROV1 ovarian, more than 37.7 µM; in the assay on HOP-92 NSCLC, 32 µM; in the assay on CCRF-CEM leukemia, more than 34.1 µM; in the assay on SW-620 colon it was more than 48.3 µM; in the assay with HCT-15 colon, more than 44.4 µM. Further, the TGI with HCC-2998 colon is 31.8 µM; with RXF 393 renal, 47.9 µM; with SK-OV-3 ovarian, more than 53.1 µM; with HS 578T breast it was more than 69.8 µM.

As for `O=C(/C=C(\O)c1ccccc1)/C(=C/C(=O)c1ccccc1)NN=C(c1ccccc1)c1ccccc1`, the TGI with MOLT-4 leukemia was 52.5 µM; in the assay with IGROV1 ovarian it was more than 100 µM; in the assay with HOP-92 NSCLC, more than 100 µM; with CCRF-CEM leukemia, 54.7 µM; with SW-620 colon it was more than 100 µM; with HCT-15 colon, more than 100 µM. Also, the TGI in the assay on HCC-2998 colon was 58.7 µM; in the assay with RXF 393 renal, more than 100 µM; in the assay with SK-OV-3 ovarian, 92.5 µM; with HS 578T breast, more than 100 µM.

Consider `COP(=O)(OC)C(NC=O)P(=O)(OC)OC`, for which the TGI with MOLT-4 leukemia, with IGROV1 ovarian, in the assay with HOP-92 NSCLC, in the assay with CCRF-CEM leukemia, in the assay with SW-620 colon and in the assay with HCT-15 colon was more than 100 µM in each case. Besides, the TGI with HCC-2998 colon, with RXF 393 renal, in the assay on SK-OV-3 ovarian and in the assay with HS 578T breast was more than 100 µM in each case.

For the compound `CCOC(=O)/C(C#N)=C(/NNc1ccccc1)c1ccncc1C(=O)O`, the TGI with MOLT-4 leukemia, in the assay on IGROV1 ovarian, in the assay with HOP-92 NSCLC, in the assay on CCRF-CEM leukemia, in the assay on SW-620 colon and in the assay on HCT-15 colon was more than 100 µM in each case. The TGI in the assay on HCC-2998 colon was more than 95.6 µM; in the assay with RXF 393 renal, more than 100 µM; in the assay with SK-OV-3 ovarian, more than 100 µM; in the assay with HS 578T breast, more than 100 µM.

As to `Cc1ccc(SC[C@@]2(C(F)F)NC(=O)NC2=O)cc1`, the TGI in the assay on MOLT-4 leukemia, in the assay with IGROV1 ovarian, in the assay on HOP-92 NSCLC, with CCRF-CEM leukemia, in the assay with SW-620 colon and in the assay on HCT-15 colon was more than 100 µM throughout. Besides, the TGI in the assay on HCC-2998 colon, in the assay on RXF 393 renal, in the assay on SK-OV-3 ovarian and in the assay on HS 578T breast was more than 100 µM throughout.

Regarding `COC1=CC(=O)c2c(O)c3c(c(O)c2C1=O)C[C@](C)(O)C[C@@H]3O`, the TGI in the assay with MOLT-4 leukemia turned out to be 31.4 µM; in the assay with IGROV1 ovarian, 17.2 µM; in the assay on HOP-92 NSCLC, 22.6 µM; with CCRF-CEM leukemia, 33.9 µM; with SW-620 colon it was 14 µM; in the assay on HCT-15 colon, 15.8 µM. The TGI in the assay on HCC-2998 colon came out at 10.7 µM; in the assay on RXF 393 renal it was 17.3 µM; in the assay with SK-OV-3 ovarian it was 41.6 µM; in the assay with HS 578T breast, 81.4 µM.

For `COc1cc([C@H]2Oc3c(OC)cc(CCCO)cc3[C@@H]2CO)ccc1O`, the TGI in the assay on MOLT-4 leukemia, with IGROV1 ovarian, with HOP-92 NSCLC, in the assay with CCRF-CEM leukemia, in the assay on SW-620 colon and with HCT-15 colon was more than 100 µM in each case. For the same compound, the TGI with HCC-2998 colon, in the assay with RXF 393 renal, in the assay with SK-OV-3 ovarian and with HS 578T breast was more than 100 µM throughout.

For `COc1cc(OC)c2c(O)c(S(=O)(=O)c3ccc(C)cc3)c(=O)oc2c1`, the TGI in the assay with MOLT-4 leukemia, with IGROV1 ovarian, in the assay on HOP-92 NSCLC, with CCRF-CEM leukemia, in the assay on SW-620 colon and in the assay with HCT-15 colon was more than 100 µM throughout. For the same compound, the TGI in the assay on HCC-2998 colon, in the assay on RXF 393 renal, in the assay with SK-OV-3 ovarian and in the assay with HS 578T breast was more than 100 µM throughout.

Consider `COC(=O)/C(=C\c1ccco1)P(=O)(OC)OC`, for which the TGI was more than 100 µM in the assay with MOLT-4 leukemia; more than 100 µM in the assay with IGROV1 ovarian; 91.9 µM in the assay with HOP-92 NSCLC; 94.2 µM in the assay with CCRF-CEM leukemia; more than 100 µM with SW-620 colon; more than 100 µM in the assay with HCT-15 colon. Also, the TGI in the assay on HCC-2998 colon, in the assay on RXF 393 renal, in the assay on SK-OV-3 ovarian and in the assay on HS 578T breast was more than 100 µM throughout.

For `CC(NNC(=O)c1ccncc1)c1ccc(Cl)c(Cl)c1` (stereo not given), the TGI with MOLT-4 leukemia, in the assay on IGROV1 ovarian, with HOP-92 NSCLC, in the assay on CCRF-CEM leukemia, with SW-620 colon and with HCT-15 colon was more than 100 µM throughout. Moreover, the TGI in the assay on HCC-2998 colon, in the assay with RXF 393 renal, in the assay on SK-OV-3 ovarian and in the assay with HS 578T breast was more than 100 µM throughout.

As for `CCOC(=O)C(NC(=O)CC)(Nc1ccc(S(=O)(=O)Nc2nc(C)cc(C)n2)cc1)C(F)(F)F` (stereo not given), the TGI with MOLT-4 leukemia, in the assay on IGROV1 ovarian, with HOP-92 NSCLC, in the assay on CCRF-CEM leukemia, in the assay on SW-620 colon and with HCT-15 colon was more than 100 µM each time. For the same compound, the TGI in the assay on HCC-2998 colon, in the assay on RXF 393 renal, in the assay on SK-OV-3 ovarian and in the assay with HS 578T breast was more than 100 µM throughout.

Consider `Cc1ccc(N=C2SC(c3ccc(C)cc3)(c3ccc(C)cc3)c3ccccc32)cc1`, for which the TGI in the assay with MOLT-4 leukemia, in the assay with IGROV1 ovarian, in the assay with HOP-92 NSCLC, in the assay with CCRF-CEM leukemia, with SW-620 colon and in the assay with HCT-15 colon was more than 100 µM each time. For the same compound, the TGI in the assay on HCC-2998 colon, in the assay with RXF 393 renal, in the assay on SK-OV-3 ovarian and with HS 578T breast was more than 100 µM throughout.

Regarding `CC(C)C(C/C=C1/CC(CO)(COC(=O)C2CCCCC2)OC1=O)C(C)C` (stereo not given), the TGI is 94.8 µM in the assay on MOLT-4 leukemia; 34.2 µM in the assay on IGROV1 ovarian; 29.8 µM in the assay on HOP-92 NSCLC; 63.2 µM with CCRF-CEM leukemia; 42.5 µM with SW-620 colon; 39.6 µM with HCT-15 colon. The TGI with HCC-2998 colon is 59.8 µM; in the assay with RXF 393 renal, 40.9 µM; in the assay on SK-OV-3 ovarian it was more than 100 µM; in the assay with HS 578T breast, 43.5 µM.

For the compound `Cc1ccc(OCC2OC(n3cnc4c(Cl)ncnc43)CC2Oc2ccc(C)cc2)cc1` (stereo not given), the TGI is 12.7 µM and 7.95 µM in the assay with MOLT-4 leukemia; 5.88 µM and 14 µM in the assay on IGROV1 ovarian; 24.2 µM and 5.57 µM in the assay with HOP-92 NSCLC; more than 40 µM in the assay on CCRF-CEM leukemia; more than 55.4 µM in the assay with SW-620 colon; 4.28 µM and 41.6 µM with HCT-15 colon. For the same compound, the TGI with HCC-2998 colon was 12.8 µM and 37 µM; in the assay on RXF 393 renal, 10.6 µM and 37.2 µM; in the assay on SK-OV-3 ovarian, more than 81.1 µM; in the assay on HS 578T breast it was > 59.2 µM and 27.5 µM. For the same compound, the GI50 was 2.43 µM and 5.87 µM in the assay with IGROV1 ovarian; 5.22 µM and 2.22 µM in the assay with HOP-92 NSCLC; 1.94 µM and 11.7 µM in the assay with HCT-15 colon; 5.44 µM and 16.8 µM in the assay on HCC-2998 colon; 2.85 µM and 10.9 µM in the assay with RXF 393 renal.
